Structures are written as SMILES. pIC50: −log10 of the molar value.

This passage reports IC50 results from ChEMBL document CHEMBL1139570, “Estrogen receptor ligands: design and synthesis of new 2-arylindene-1-ones” (Bioorg Med Chem Lett, 2005).

Experiment [1] deals with T1, Estrogen receptor (Homo sapiens, UniProt P03372).
T1 sequence (P03372 whole entry): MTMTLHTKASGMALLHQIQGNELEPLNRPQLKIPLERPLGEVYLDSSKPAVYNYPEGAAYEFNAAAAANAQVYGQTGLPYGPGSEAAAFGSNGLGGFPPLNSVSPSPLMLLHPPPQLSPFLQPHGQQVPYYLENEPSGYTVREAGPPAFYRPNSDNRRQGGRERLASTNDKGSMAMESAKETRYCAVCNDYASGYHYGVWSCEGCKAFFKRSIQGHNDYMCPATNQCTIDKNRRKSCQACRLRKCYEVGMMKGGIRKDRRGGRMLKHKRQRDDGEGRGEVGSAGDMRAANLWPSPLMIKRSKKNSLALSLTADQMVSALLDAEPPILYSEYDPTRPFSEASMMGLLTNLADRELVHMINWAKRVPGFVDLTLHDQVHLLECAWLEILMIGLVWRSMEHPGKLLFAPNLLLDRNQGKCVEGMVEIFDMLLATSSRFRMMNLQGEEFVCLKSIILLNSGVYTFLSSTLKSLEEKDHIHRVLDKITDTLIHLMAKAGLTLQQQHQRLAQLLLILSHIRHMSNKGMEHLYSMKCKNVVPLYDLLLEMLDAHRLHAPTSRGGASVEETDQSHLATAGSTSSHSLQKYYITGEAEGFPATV
Description: Inhibition of human estrogen receptor alpha

In experiment [2] the target is Estrogen receptor beta (Homo sapiens, UniProt Q92731).
Sequence of Estrogen receptor beta (Q92731 whole entry): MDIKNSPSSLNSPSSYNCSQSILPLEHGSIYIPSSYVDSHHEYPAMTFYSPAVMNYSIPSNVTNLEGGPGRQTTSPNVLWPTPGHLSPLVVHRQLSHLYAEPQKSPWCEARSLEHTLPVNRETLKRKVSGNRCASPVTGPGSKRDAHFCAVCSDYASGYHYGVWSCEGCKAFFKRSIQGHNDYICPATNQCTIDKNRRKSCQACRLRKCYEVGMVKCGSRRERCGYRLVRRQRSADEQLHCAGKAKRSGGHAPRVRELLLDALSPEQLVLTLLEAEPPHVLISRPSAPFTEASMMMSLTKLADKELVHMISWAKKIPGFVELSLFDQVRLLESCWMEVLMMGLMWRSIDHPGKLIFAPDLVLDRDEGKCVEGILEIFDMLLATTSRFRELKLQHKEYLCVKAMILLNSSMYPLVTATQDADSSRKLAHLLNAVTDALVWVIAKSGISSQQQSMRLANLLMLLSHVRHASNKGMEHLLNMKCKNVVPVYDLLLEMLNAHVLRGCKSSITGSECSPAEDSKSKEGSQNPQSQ
Description: Inhibition of human estrogen receptor beta

What is called pIC50 is the negative decadic logarithm of the IC50, by convention in mol/L. Low values mean a high IC50, high ones a low IC50. Consider `NC1=C(c2ccc(O)cc2)C(=O)c2cc(O)ccc21`, for which the negative logarithm of the IC50 (pIC50) was less than 5.30 in experiment [1] and 5.94 in experiment [2].

Turning to `CCSC1=C(c2ccc(O)cc2)C(=O)c2cc(O)cc(O)c21`, the pIC50 was 6.24 in experiment [1] and 6.82 in experiment [2].

In the case of `CCSC1=C(c2ccc(O)cc2)C(=O)c2ccc(O)cc21`, the negative logarithm of the IC50 (pIC50) in experiment [1] is 6.32.

`CC/N=C1/C(c2ccc(O)cc2)=C(O)c2cc(O)cc(O)c21`: the pIC50 is less than 5.30 in experiment [1] and 5.57 in experiment [2].

The molecule `O=C1C(c2ccc(O)cc2)=C(O)c2ccc(O)cc21` showed a negative logarithm of the IC50 (pIC50) in experiment [1] of less than 5.30.

As for `O=C1C(c2ccc(O)cc2)=C(O)c2cc(O)cc(O)c21`, the negative-log IC50 (pIC50) in experiment [1] was less than 5.30.

Consider `O=C1C(c2ccc(O)cc2)=C(c2ccccc2)c2ccc(O)cc21`, for which the pIC50 in experiment [1] and in experiment [2] was 8.05 each time.

As for `CSC1=C(c2ccc(O)cc2)C(=O)c2ccc(O)cc21`, the pIC50 in experiment [1] was 8.51; in experiment [2] it was 8.89.

With `COc1ccc2c(c1)C(Br)=C(c1ccc(O)cc1)C2=O`, the pIC50 was 5.74 in experiment [1] and 6.70 in experiment [2].

As for `O=C1C(c2ccc(O)cc2)=C(Br)c2cc(O)ccc21`, the pIC50 is 8.28 in experiment [1] and 8.77 in experiment [2].

`CC1=C(c2ccc(O)cc2)C(=O)c2c(O)cc(O)cc21` gave a pIC50 in experiment [2] of 8.62.

As for `O=C1C(c2ccc(O)cc2)=C(c2ccccc2)c2cc(O)ccc21`, the pIC50 in experiment [1] and in experiment [2] was 8.00 in each case.
